Activity calls are given as the source filed them. Rule as the data show it, for most assays here: actives have a measured Kd and inactives only a lower limit. A value given as a limit tells only on which side of the number the result lay.

The target of test [1] is Chromodomain-helicase-DNA-binding protein 4 (Homo sapiens, UniProt Q14839).
Test [2] has as its target T1, Serine/threonine-protein kinase TAO3 (Homo sapiens, UniProt Q9H2K8).
T1 sequence (Q9H2K8 whole entry): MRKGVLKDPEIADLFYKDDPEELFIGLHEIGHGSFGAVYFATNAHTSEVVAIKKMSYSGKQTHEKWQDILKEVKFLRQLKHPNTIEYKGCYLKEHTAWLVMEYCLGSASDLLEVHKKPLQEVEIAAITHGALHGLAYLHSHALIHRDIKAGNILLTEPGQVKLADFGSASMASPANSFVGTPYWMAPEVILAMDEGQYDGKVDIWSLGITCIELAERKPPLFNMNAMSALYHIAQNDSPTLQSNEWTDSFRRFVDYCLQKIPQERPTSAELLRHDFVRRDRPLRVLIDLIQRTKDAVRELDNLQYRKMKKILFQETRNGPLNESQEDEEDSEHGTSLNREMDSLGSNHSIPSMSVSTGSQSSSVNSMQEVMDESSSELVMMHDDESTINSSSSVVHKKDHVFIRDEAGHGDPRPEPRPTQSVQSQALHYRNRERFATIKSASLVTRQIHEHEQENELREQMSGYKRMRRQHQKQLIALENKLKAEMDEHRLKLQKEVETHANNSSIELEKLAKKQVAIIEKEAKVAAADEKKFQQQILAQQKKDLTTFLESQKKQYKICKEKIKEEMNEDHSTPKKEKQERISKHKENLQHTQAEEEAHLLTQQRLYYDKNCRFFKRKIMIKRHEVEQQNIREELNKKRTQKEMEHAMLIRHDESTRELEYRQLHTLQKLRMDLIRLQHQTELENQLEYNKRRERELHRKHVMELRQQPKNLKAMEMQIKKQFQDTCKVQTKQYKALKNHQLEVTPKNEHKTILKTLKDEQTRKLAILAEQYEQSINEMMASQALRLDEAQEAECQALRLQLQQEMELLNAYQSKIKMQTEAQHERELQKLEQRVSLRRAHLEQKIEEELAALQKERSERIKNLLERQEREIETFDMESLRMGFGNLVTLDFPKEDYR

The target of test [3] is T2, Ribosyldihydronicotinamide dehydrogenase [quinone] (Homo sapiens, UniProt P16083).
T2 sequence (P16083 whole entry): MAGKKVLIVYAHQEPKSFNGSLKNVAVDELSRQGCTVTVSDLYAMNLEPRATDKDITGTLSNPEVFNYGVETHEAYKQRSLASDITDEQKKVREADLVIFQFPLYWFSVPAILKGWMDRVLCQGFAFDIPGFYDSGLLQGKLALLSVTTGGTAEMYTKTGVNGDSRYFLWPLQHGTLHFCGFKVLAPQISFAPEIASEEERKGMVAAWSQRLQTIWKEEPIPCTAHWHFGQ

Test [4] deals with Serine/threonine-protein kinase PAK 4 (Homo sapiens, UniProt O96013).
In test [5] the target is Serine/threonine-protein kinase N2 (Homo sapiens, UniProt Q16513).
The target in test [6] is Maternal embryonic leucine zipper kinase (Homo sapiens, UniProt Q14680).
In test [7] the target is T3, Tyrosine-protein kinase Tec (Homo sapiens, UniProt P42680).
T3 sequence (P42680 whole entry): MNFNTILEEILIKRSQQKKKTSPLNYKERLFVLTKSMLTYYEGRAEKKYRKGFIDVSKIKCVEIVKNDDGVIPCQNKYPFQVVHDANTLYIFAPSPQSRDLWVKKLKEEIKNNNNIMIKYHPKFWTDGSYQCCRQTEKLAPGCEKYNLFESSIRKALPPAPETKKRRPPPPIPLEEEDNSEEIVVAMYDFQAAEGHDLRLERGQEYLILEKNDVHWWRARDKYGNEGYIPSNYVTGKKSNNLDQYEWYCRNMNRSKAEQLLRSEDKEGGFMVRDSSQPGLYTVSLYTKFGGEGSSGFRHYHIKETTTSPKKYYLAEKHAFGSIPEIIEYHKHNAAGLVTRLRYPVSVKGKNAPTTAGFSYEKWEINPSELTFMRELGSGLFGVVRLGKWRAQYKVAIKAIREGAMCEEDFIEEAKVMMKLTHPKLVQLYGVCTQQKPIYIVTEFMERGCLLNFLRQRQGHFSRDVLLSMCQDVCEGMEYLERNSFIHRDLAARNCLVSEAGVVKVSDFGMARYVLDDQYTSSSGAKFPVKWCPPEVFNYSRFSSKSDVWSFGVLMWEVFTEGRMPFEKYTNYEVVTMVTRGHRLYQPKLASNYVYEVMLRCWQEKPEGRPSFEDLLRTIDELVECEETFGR

Test [8] deals with Dual specificity tyrosine-phosphorylation-regulated kinase 1A (Homo sapiens, UniProt Q13627).
The target of test [9] is T4, Serine/threonine-protein kinase STK11 (Homo sapiens, UniProt Q15831).
T4 sequence (Q15831 whole entry): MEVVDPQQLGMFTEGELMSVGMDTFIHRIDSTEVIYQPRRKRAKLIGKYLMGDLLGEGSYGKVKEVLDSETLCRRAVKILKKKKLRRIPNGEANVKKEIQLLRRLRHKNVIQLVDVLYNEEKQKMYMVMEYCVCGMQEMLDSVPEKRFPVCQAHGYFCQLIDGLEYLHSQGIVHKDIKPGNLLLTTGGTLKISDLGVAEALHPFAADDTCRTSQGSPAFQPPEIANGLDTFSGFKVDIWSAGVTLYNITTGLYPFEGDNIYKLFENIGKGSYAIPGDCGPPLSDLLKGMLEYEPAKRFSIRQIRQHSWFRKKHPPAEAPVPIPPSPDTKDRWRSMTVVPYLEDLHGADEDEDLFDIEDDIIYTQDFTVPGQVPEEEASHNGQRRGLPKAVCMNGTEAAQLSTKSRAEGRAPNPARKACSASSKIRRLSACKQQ

Test [10] addresses Mitogen-activated protein kinase 8 (Homo sapiens, UniProt P45983).
In test [11] the target is Interleukin-1 receptor-associated kinase 1 (Homo sapiens, UniProt P51617).
The target in test [12] is Activin receptor type-2B (Homo sapiens, UniProt Q13705).
In test [13] the target is Cyclin-dependent kinase 5 (Homo sapiens, UniProt Q00535).
Also: in the data inactive means no Kd found up to 30 µM.

Chain of Mitogen-activated protein kinase 8 (P45983 whole entry): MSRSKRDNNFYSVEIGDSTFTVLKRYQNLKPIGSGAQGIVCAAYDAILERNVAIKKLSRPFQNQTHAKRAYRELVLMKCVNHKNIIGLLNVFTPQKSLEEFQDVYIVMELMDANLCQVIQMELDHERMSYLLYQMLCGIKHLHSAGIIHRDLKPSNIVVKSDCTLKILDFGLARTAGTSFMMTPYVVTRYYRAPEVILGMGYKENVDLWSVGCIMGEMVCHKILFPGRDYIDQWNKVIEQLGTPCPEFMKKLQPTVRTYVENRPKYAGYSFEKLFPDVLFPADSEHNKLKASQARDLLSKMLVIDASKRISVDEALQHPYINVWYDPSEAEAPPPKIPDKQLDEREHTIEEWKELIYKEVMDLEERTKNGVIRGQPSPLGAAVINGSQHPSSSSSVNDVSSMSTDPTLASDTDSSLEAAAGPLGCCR
Chain of Cyclin-dependent kinase 5 (Q00535 whole entry): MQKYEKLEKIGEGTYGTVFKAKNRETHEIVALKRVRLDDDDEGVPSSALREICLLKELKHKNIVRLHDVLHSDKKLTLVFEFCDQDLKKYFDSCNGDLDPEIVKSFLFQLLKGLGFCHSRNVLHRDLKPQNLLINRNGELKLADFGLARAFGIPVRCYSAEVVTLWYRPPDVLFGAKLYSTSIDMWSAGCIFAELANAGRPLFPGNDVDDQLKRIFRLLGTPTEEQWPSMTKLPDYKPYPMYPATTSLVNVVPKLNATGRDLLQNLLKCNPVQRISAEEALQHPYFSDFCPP
Chain of Serine/threonine-protein kinase PAK 4 (O96013 whole entry): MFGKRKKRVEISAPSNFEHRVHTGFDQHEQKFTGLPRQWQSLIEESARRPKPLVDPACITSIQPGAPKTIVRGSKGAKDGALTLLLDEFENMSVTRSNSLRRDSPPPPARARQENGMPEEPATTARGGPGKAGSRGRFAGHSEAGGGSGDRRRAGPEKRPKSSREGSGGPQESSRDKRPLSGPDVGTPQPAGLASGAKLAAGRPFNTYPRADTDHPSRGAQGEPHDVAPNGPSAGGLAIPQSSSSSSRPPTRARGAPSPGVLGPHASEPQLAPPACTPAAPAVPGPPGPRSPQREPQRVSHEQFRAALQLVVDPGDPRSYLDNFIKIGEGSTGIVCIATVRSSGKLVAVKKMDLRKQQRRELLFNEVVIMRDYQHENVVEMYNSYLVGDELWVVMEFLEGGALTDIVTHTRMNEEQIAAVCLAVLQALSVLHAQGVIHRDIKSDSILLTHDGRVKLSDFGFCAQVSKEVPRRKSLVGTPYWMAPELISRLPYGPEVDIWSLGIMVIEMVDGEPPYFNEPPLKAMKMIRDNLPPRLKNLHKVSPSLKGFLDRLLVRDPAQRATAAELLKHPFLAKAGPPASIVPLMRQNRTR
Chain of Serine/threonine-protein kinase N2 (Q16513 whole entry): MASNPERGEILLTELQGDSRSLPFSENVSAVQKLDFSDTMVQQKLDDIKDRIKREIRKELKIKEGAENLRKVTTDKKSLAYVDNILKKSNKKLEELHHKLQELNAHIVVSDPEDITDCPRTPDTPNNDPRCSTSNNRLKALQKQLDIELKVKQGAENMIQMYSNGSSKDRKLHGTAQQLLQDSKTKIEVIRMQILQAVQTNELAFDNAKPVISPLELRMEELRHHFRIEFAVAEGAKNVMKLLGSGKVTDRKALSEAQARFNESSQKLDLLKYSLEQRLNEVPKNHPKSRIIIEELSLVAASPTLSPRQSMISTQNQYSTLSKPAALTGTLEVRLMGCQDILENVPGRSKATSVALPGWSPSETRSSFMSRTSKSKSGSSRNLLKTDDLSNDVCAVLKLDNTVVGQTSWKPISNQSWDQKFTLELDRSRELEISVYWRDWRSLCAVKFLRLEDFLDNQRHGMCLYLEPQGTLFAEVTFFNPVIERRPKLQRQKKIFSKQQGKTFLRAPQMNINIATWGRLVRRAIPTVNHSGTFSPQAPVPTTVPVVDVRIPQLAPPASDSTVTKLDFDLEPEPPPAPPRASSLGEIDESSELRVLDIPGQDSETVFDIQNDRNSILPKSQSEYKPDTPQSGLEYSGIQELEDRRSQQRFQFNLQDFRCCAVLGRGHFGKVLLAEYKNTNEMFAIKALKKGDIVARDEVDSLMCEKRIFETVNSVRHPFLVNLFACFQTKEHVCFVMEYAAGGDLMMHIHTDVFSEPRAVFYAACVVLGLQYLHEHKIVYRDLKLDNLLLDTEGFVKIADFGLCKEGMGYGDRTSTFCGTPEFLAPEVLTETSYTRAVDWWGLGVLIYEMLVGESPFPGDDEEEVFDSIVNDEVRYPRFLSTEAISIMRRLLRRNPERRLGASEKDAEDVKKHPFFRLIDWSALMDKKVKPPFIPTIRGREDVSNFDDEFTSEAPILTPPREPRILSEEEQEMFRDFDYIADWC
Chain of Activin receptor type-2B (Q13705 whole entry): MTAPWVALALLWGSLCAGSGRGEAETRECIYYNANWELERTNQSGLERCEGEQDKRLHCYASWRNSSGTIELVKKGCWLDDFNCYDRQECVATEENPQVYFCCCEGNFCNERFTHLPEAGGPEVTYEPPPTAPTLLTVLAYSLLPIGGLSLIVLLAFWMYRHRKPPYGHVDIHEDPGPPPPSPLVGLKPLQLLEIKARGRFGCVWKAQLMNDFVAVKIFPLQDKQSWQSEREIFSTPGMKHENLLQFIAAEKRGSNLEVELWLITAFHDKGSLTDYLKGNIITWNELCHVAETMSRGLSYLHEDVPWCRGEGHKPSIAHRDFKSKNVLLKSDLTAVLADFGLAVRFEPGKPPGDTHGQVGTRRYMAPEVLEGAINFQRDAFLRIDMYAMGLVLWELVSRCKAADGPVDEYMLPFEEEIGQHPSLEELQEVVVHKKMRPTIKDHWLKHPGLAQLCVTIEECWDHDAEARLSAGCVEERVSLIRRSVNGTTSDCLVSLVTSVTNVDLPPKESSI
Chain of Interleukin-1 receptor-associated kinase 1 (P51617 whole entry): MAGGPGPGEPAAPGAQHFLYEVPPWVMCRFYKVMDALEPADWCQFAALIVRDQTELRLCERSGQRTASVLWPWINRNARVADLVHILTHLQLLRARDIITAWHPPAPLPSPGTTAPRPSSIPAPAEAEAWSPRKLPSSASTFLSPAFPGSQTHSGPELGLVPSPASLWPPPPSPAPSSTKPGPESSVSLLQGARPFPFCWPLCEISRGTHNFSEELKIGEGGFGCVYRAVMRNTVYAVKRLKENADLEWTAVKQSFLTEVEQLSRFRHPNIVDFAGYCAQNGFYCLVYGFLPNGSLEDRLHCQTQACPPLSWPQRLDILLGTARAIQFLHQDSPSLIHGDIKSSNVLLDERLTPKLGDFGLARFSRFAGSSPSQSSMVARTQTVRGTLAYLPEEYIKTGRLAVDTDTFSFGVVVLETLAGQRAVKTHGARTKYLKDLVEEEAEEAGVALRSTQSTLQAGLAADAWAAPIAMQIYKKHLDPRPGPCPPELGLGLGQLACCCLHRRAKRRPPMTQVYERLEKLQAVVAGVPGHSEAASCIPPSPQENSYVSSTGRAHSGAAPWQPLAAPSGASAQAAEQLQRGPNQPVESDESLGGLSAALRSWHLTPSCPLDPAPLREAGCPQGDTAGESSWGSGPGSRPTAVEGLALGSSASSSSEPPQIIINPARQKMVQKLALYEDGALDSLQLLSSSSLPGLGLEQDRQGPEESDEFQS
Chain of Maternal embryonic leucine zipper kinase (Q14680 whole entry): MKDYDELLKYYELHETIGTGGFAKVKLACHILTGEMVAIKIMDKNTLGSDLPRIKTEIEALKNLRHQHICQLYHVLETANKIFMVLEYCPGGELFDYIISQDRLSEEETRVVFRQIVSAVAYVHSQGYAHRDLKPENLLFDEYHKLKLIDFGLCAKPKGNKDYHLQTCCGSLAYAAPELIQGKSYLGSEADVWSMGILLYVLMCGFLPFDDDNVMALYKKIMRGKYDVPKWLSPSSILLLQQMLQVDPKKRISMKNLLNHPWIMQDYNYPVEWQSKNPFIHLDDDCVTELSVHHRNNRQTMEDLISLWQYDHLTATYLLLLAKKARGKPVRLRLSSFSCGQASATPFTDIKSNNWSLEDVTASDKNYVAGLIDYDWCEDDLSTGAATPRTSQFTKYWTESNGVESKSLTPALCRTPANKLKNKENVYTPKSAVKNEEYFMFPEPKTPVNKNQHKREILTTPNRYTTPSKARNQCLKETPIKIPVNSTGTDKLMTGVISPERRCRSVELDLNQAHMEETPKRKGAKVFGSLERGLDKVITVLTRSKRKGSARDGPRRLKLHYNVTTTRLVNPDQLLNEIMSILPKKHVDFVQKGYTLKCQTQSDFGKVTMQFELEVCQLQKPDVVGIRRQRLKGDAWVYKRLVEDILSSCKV

As usually defined, the Kd is the constant that tells how readily two partners part at equilibrium. On to `Cn1cc(-c2[nH]c3cc(NC(=O)[C@H](N)C4CCCCC4)cc4c3c2C=NNC4=O)cn1`, for which the Kd was > 30 µM (inactive) in test [1]; > 30 µM (inactive) in [2]; > 30 µM (inactive) in test [3]; 0.053 µM (active) in test [4]; > 30 µM (inactive) in [5]; 45.7 µM (active) in test [6]. The Kd was > 30 µM (inactive) in test [7]; > 30 µM (inactive) in [8]; 4.37 µM (active) in test [9]; > 30 µM (inactive) in test [10]; > 30 µM (inactive) in test [11]; > 30 µM (inactive) in [12]. Besides, the Kd in test [13] is > 30 µM (inactive).

Turning to `CC(C)(O)CC(=O)NCCn1ccc2ncnc(Nc3ccc(Oc4cccc(C(F)(F)F)c4)c(Cl)c3)c21` [TAK-285], the Kd in test [1], in test [2], in [3], in test [4], in test [5] and in test [6] was > 30 µM (inactive) each time. Also, the Kd in test [7], in test [8], in [9], in test [10], in test [11] and in test [12] was > 30 µM (inactive) each time. In addition, the Kd in test [13] was > 30 µM (inactive).

In the case of `C[C@@H]1COC(Nc2ccc3ncnc(Nc4ccc(OCc5nccs5)c(Cl)c4)c3c2)=N1` [VARLITINIB], the Kd in test [1], in test [2], in [3], in test [4], in test [5] and in test [6] was > 30 µM (inactive) in each case. For the same compound, the Kd in test [7], in test [8], in test [9], in test [10], in test [11] and in [12] was > 30 µM (inactive) each time. Also, the Kd in test [13] is > 30 µM (inactive).

For `O=C(NC[C@H](O)CO)c1ccncc1Nc1ccc(I)cc1F` [PIMASERTIB], the Kd in test [1], in test [2], in test [3], in test [4], in test [5] and in [6] was > 30 µM (inactive) each time. In addition, the Kd in [7], in [8], in [9], in [10], in [11] and in [12] was > 30 µM (inactive) throughout. Further, in [13], the Kd is > 30 µM (inactive).

In the case of `CCc1cc2c(cc1N1CCC(N3CCOCC3)CC1)C(C)(C)c1[nH]c3cc(C#N)ccc3c1C2=O` [ALECTINIB], the Kd in [1], in test [2], in [3], in test [4], in test [5] and in test [6] was > 30 µM (inactive) in each case. The Kd in [7], in [8], in [9], in test [10], in test [11] and in test [12] was > 30 µM (inactive) throughout. The Kd in test [13] is > 30 µM (inactive).

For `COc1cc(Nc2ncc(F)c(Nc3ccc4c(n3)N(COP(=O)(O)O)C(=O)C(C)(C)O4)n2)cc(OC)c1OC` [FOSTAMATINIB], the Kd in [1], in test [2], in test [3], in [4], in test [5] and in [6] was > 30 µM (inactive) in each case. Also, the Kd in [7] was > 30 µM (inactive); in [8] it was > 30 µM (inactive); in [9], > 30 µM (inactive); in test [10] it was 2.01 µM (active); in test [11] it was > 30 µM (inactive); in test [12] it was > 30 µM (inactive). Also, in test [13], the Kd is > 30 µM (inactive).

On to `COc1cccc2cc(-c3nc([C@H]4CC[C@H](C(=O)O)CC4)n4ncnc(N)c34)[nH]c12` [OSI-027], for which the Kd in [1] was > 30 µM (inactive); in test [2], > 30 µM (inactive); in test [3], 1.39 µM (active); in test [4] it was > 30 µM (inactive); in test [5], > 30 µM (inactive); in test [6], > 30 µM (inactive). In addition, the Kd in test [7], in test [8], in [9], in [10], in test [11] and in test [12] was > 30 µM (inactive) in each case. Also, the Kd in [13] was > 30 µM (inactive).

As to `COc1ccc2c(OCc3nnc4ccc(-c5ccccc5)nn34)ccnc2c1` [AMG-208], the Kd in test [1], in test [2], in [3], in test [4], in test [5] and in [6] was > 30 µM (inactive) each time. In addition, the Kd in [7], in [8], in [9], in test [10], in test [11] and in test [12] was > 30 µM (inactive) each time. In addition, in test [13], the Kd was > 30 µM (inactive).

On to `COc1cc2ncnc(Nc3ccc(F)c(Cl)c3)c2cc1NC(=O)/C=C/CN1CCCCC1` [DACOMITINIB ANHYDROUS], for which the Kd in test [1], in [2], in test [3], in test [4], in [5] and in test [6] was > 30 µM (inactive) throughout. Further, the Kd in test [7], in test [8], in [9], in [10], in test [11] and in test [12] was > 30 µM (inactive) throughout. The Kd in test [13] was > 30 µM (inactive).

Values taken from ChEMBL document CHEMBL3991601, “The target landscape of clinical kinase drugs” (Science, 2017).
